Data taken from article PMC5700161, “Structure of human immunoproteasome with a reversible and noncompetitive inhibitor that selectively inhibits activated lymphocytes” (Nature Communications, 2017).
Entries after “also recorded” stand apart in the source; their conditions may differ.

Assays:
[1] = tested on: T cells; assay: In vitro T-cell proliferation, anti-CD3/anti-CD28; format: cell-based, human; settings: anti-CD3 and anti-CD28 stimulation
Excerpt: (§1) As we observed selective cytotoxicity of PKS21221 in activated B cells and ASCs compared to non-activated B cells, we asked whether this is the case in proliferating T cells. We activated human T cells to proliferate with anti-CD3 and anti-CD28 in the presence or absence of PKS21221 or bortezomib. […] To examine whether these inhibitors are cytotoxic preferentially to proliferating cells, we triggered T-cell proliferation with anti-CD3/anti-CD28 for 4 days (in the absence of inhibitors), treated the cells with PKS21221 for the next 24 h and determined cell survival with Annexin V and 7-AAD (Fig. 6c, d).
(§2) Fig. 6 Effect of PKS21221 and bortezomib (BTZ) on T-cell proliferation. T cells were isolated from human PBMC and stimulated with anti-CD3 (1 µg per ml) and anti-CD28 (1 µg per ml) for 4 days. […] Apoptosis c and viability d were assessed in proliferating and non-proliferating population of T cells. […]
(§3) T cells were isolated from human PBMCs using Human T-cell Isolation kit (StemCell Technologies, Cat#17951). […] Cells were counted and loaded with 5 μM CellTrace Violet (Thermo Fisher) in phosphate buffered saline (PBS) for 10 min at 37 °C, followed by wash in 10% fetal calf serum (FCS)-supplemented RPMI 1640 media. […] The viability and apoptosis were assessed using Annexin V Apoptosis Detection Kit (BD Biosciences). […]

[2] = tested on: resting CD3+ T cells and CD19+ B cells; assay: Viability assay of human PBMC populations (Fixable Viability dye); format: cell-based; settings: 10 nM bortezomib vs 1 μM PKS21221
Protocol: (§4) The immunoproteasome plays important roles in T cell differentiation and proliferation and dendritic cell activation and maturation[14],[20],[24]. However, its role in B cell differentiation is not well understood. […] Differentiated ASCs were then exposed to PKS21221 at indicated concentrations and cell survival was determined with Annexin V and 7-aminoactinomycin D (7-AAD) at three-time points (12-h, 24-h, and 48-h after treatment). […] In addition, the cytotoxicity of PKS21221 to different cell populations in PBMC was examined and compared to the cytotoxicity of bortezomib. PBMCs were incubated with PKS21221 or bortezomib, and the viability was assessed in T cells (CD3^+), B cells (CD19^+), monocytes (CD14^+) and dendritic cells (CD3^−CD19^−CD14^−CD16^−CD11c^+HLA-DR^+), respectively (Supplementary Fig. 13b–e).
(§5) (1 picture or pasted object on this page, not shown here)

[3] = tested on: proliferating T cells; assay: Apoptosis and viability of proliferating vs non-proliferating T cells; format: cell-based, human; settings: 4 days anti-CD3/anti-CD28, then 24 h; PKS21221 1 µM, BTZ 10 nM
Excerpt: as §1, §2, §3

[4] = tested on: CD19+CD38+CD27+ ASCs; assay: Survival and apoptosis of differentiated antibody-secreting cells (ASCs) from PBMC, Annexin V/7-AAD; format: cell-based, human; settings: added for 12 hours on Day 5
Protocol: as §4
PBMCs were cultured with or without IL-2/R848 for 5 days, followed by 12-h incubation with PKS21221 at different concentrations. a Representative flow cytometry plots of cells treated with IL-2 and R848 in the presence and absence of PKS21221. […] Annexin V^+7-AAD^− cells were referred as “Early apoptosis” population, and Annexin V^+7-AAD^+ cells were referred as “Dead” population. d Percentage of early apoptotic ASCs (left) and dead ASCs (right), after 12-h incubation with PKS21221.
Human peripheral blood samples were obtained from five different healthy volunteers (BWH Specimen Bank). Peripheral blood mononuclear cells (PBMCs) were isolated by density gradient centrifugation using Lymphoprep (StemCell Technologies). PBMCs were cultured at 1.5 × 10^6 cells per mL in RPMI 1640 media (Lonza), supplemented with 10% human serum (GemCell) (10% HS-RPMI), recombinant human IL-2 10 ng per mL (or 100 U per ml, BioLegend) and R848 1 µg per mL (Cayman Chemicals) for 5 days, at 37 °C, 5% CO2. PKS21221 in DMSO, or DMSO only for control, was added to the culture media on day 5, and cells were incubated for additional 12, 24, and 48 h.

[5] = biological target: β2c (Homo sapiens, UniProt Q99436); assay: IC50 against β2c of human constitutive proteasome (Z-VLR-AMC)
Protocol: (§7) IC50s of all compounds against β5i and β5c (Table 2) and against β1i, β2i, β1c, and β2c (Supplementary Table 1) were determined following reported methods[8].

[6] = biological target: β1i (Homo sapiens, UniProt P28065); assay: IC50 against β1i of human immunoproteasome (Ac-PAL-AMC)
Protocol: as §7

[7] = biological target: human β5c (Homo sapiens, UniProt P20618+P28074); assay: IC50 determination against human β5c of c-20S
Protocol: as §7

[8] = biological target: β1c (Homo sapiens, UniProt P28072); assay: IC50 against β1c of human constitutive proteasome (Z-LLE-AMC)
Protocol: as §7

[9] = biological target: T1, β5c (c-20S) (Homo sapiens, UniProt P20618+P28074); assay: Reversibility: dialysis of pre-incubated c-20S and inhibitor; format: biochemical; settings: dialysis of pre-incubated mixture of c-20S and inhibitor
Excerpt: (§6) With increasing concentrations of PKS21004, both V max and K M decreased (Fig. 1d–g and Supplementary Fig. 1). […] This class thus joins a growing list of noncompetitive proteasome inhibitors[5],[30].

[10] = biological target: T1, β5c (c-20S); assay: Kinetics studies of modality of inhibition against β5c; format: biochemical
Excerpt: Data as in d are shown in double reciprocal plots in e, and data from f in g. […] Data are means ± SEM of three independent experiments
as §6

[11] = biological target: human β5i (Homo sapiens, UniProt P20618+P28062); assay: IC50 determination against human β5i of i-20S
Protocol: as §7

[12] = biological target: β2i (Homo sapiens, UniProt P40306); assay: IC50 against β2i of human immunoproteasome (Z-VLR-AMC)
Protocol: as §7

[13] = biological target: T2, β5i (i-20S) (Homo sapiens, UniProt P20618+P28062); assay: Kinetics studies of modality of inhibition against β5i; format: biochemical
T2 construct: purchased Boston Biochem
Protocol: Data as in d are shown in double reciprocal plots in e, and data from f in g. […] Data are means ± SEM of three independent experiments […]
as §6
Supplementary Figure 11. Inhibition kinetics of PKS21221 against i-20S β5i. (A) Steady state velocities of the Ac-ANW-AMC hydrolysis at 10, 15, 25, 35 µM by i-20S β5i (0.4 nM) in the presence of PKS21221 at indicated concentrations were determined at 37 °C and plotted by RFU versus substrate concentration (A); values of KM, Ki and α were estimated by PRISM using equation V = (Vmax / (1 + I / (α*Ki))) * S / (KM * (1+ I / Ki) / (1 + I / (α*Ki)) + S); (B) Lineweaver-Burk plot of the data in (A). (C) Plot of KM versus concentrations of PKS21221 indicates a mixed type inhibition. (D) Plot of Vmax versus concentrations of PKS21221.
as §5

[14] = fit to equation for noncompetitive inhibitors

SMILES | proliferation of T cells [1] | cytotoxicity to resting CD3+ T cells and CD19+ B cells [2] | apoptosis and cell death, proliferating vs non-proliferating T cells [3] | ASC percentage in ASC differentiating culture [4] | IC50 [5] [nM] | IC50 [6] [nM] | Hill coefficient constant, inhibition of β5c [7] | IC50 [7] [nM] | IC50 [8] [nM] | reversibility of β5c inhibition; β5c activity after dialysis [9] | α for β5c (αc-20S) [10] | Ki [10, 14] [nM] | modality of inhibition of β5c ([10]; versus substrate) | Hill coefficient constant, inhibition of β5i [11] | IC50 [11] [nM] | IC50 [12] [nM] | α for β5i (αi-20S) [13] | α for β5i ([13]; as printed in legend of Fig. 1) | Ki [13, 14] [nM] | modality of inhibition of β5i ([13]; versus substrate)
CC(C)C[C@H](NC(=O)[C@H](Cc1ccccc1)NC(=O)c1cnccn1)B(O)O [Bortezomib, bortezomib, reference compound] | inhibited proliferation of T cells in a dose-dependent manner | more cytotoxic at 10 nM than PKS2122 at 1 µM | induced apoptosis and cell death to a greater extent in proliferating T cells than in non-proliferating T cells | decreased the percentage of |  |  |  |  |  |  |  |  |  |  |  |  |  |  |  | 
CC(C)(C)NC(=O)C[C@H](NC(=O)CCc1ccccc1)C(=O)NCCNC(=O)c1cccc(-c2ccccc2)c1 [PKS21004] |  |  |  |  | > 50000 | > 50000 | ~ 1 | 326 | > 50000 | reversibly inhibits; also recorded: fully restored | 0.65 and ≈ 0.65 | 550 | noncompetitively | ~ 1 | 58 | > 50000 | ≈ 0.28 | 0.28 | 77 | noncompetitively
